According to patent US6727059B1, “METHOD FOR CONTROLLING THE FIDELITY AND PROCESSIVITY OF REVERSE TRANSCRIPTASE BY INCORPORATION AND POLYMERIZATION OF NUCLEOTIDE ANALOGS ACCEPTED AS SUBSTRATES FOR THE REVERSE TRANSCRIPTION REACTION WITHOUT BLOCKING ITS ELONGATION” (priority 2002, dated 2004):

Columns and labels:
Type in all cases: biochemical
[1] = biological target: T1, HIV-1 reverse transcriptase (Human immunodeficiency virus type 1 group M subtype B, UniProt P04585); experiment: Identification of termination sites of polymerization with base analogs, HIV-1 reverse transcriptase; details: pbs primer; for number of new termination sites appearing / termination rate with the analog compared to the normal dNTP, overall: analog replaces its normal dNTP; for termination rate with the analog compared to the normal dNTP, overall: each dNTP 500 μM, 30 min 37° C.
From the text: The termination sites and the termination rates at each site were studied in the presence of 4 natural dNTPs present in excess, or in the presence of three of these natural dNTPs, the fourth being replaced with an analog: dUTP as a replacement for dTTP, dITP and c7dGTP as a replacement for dGTP and, finally, c7dATP in place of dATP (FIGS. 1.2 and 1.3). These analogs affect the formation of the hydrogen bonds in the two grooves of the double helix.
(§1) The termination sites were identified during polymerization catalyzed by the HIV-1 reverse transcriptase and the Klenow fragment by changing one of the dNTPs for its base analog. dTTP was replaced with dUTP, dGTP was replaced with dITP or c7dGTP and dATP was replaced with c7dATP. In this study, the synthesis is primed with pbs.
(§2) The reaction begins by formation of the reaction complex between the matrix/primer labeled at the 5′ end (0.05 pmol) with the enzyme (0.01 U/μl) by incubation at 37° C. for 3 min for the 3 RTs and at 25° C. for the Klenow fragment. A solution containing the 3 dNTPs and one of the analogs, each at the final concentration of 500 μM, and trapping DNA (100:1:trapping DNA:matrix/cold primer) is then added. The use of trapping DNA makes it possible to prevent the reinitialization of the polymerization at the termination sites. In parallel, a control in the presence of the 4 “normal” dNTPs was carried out under reaction conditions identical to the reaction in the presence of analogs. The mixture is incubated for 30 min at 37° C. for the HIV-1 reverse transcriptase and at 25° C. for the Klenow fragment. The reaction is stopped by adding ⅓ volume of stop solution (v/v), and then the reaction products are loaded onto a denaturing 8 M urea 13% acrylamide gel. Position of the termination sites is identified by the co-migration of the sequencing products (Sanger method).
(§3) Each reaction was carried out 3 times; variations in the strength of the termination rates are observed, but they are small and less than 10%. For the HIV-1 reverse transcriptase and the Klenow fragment, the synthesis termination rates with the various analogs (black rods) as a function of the sequence are given in the presence of the termination rates obtained in the control reaction, i.e. in the presence of the “normal” bases (white rods).

[2] = biological target: T2, Klenow fragment of E.coli DNA-dependent DNA polymerase (Escherichia coli, UniProt P00582); experiment: Identification of termination sites of polymerization with base analogs, Klenow fragment; details: pbs primer; for termination rate with the analog compared to the normal dNTP: analog replaces its normal dNTP, each dNTP 500 μM, 30 min 25° C., positions +20 to +55
T2 construct: the Klenow fragment of E.coli DNA-dependent DNA polymerase (KF)
From the text: These matrices were used for parallel studies of HIV-1 reverse transcriptase and of the Klenow fragment of E.coli DNA-dependent DNA polymerase (KF). There have been many studies relating to the fidelity and processivity of the Klenow fragment (Abbotts and Wilson, 1988; Lecomte and Ninio, 1987, 1988; Papanicolaou and Ripley, 1989 and 1991).
as §1, §2, §3
Overall, the presence of the base analogs reduces the efficiency of the Klenow fragment polymerization, making it difficult to detect termination sites beyond the position +55, and for this reason, we have represented, in the various figures which follow, only the termination sites located between position +20 and +55.

[3] = biological target: T1, HIV-1 reverse transcriptase; experiment: Kinetics of misincorporation (error rate) in the minus A reaction with base analogs; details: absence of dATP; for error rate at the first misincorporation site opposite T-135, start of the kinetics: starting value
From the text: In order to understand the role of the three dNTPs present involved in the misincorporation subsequent to the absence of the fourth dNTP, dGTP and/or dCTP were replaced with dITP and dUTP, respectively, in the reaction minus A. dITP was chosen because I can pair with T and therefore compensate for the absence of A, and dUTP was chosen in order to assess the affect that the absence of the methyl of a T may have on the fidelity of incorporation of the neighboring pair. For this reason, we are interested not only in the sites and rates of misincorporations, but in the kinetics with which these misincorporations take place. The conditions most suited to the lack of fidelity of the HIV-RT were selected: use of the matrix+env (ppt primer) and absence of dATP (data not shown).
After hybridization of the ppt primer labeled at the 5′ end (1 pmol), with the matrix+env (2 pmol), the HIV-1 reverse transcriptase is added at the final concentration of 0.1 U/μl. Solutions containing dCTP, dGTP, dTTP (control), dCTP, dITP, dTTP or dCTP, dGTP, dUTP or dCTP, dITP, dUTP, each at the final concentration of 500 μM, were added to equivalent (¼ of the mixture) fractions. […] After denaturation at 92° C. for 5 min, the reaction products are loaded onto an 8M urea denaturing 13% acrylamide gel.
FIG. 4.4 represents the variation in the misincorporation rate in front of T-135 (matrix), the first misincorporation site, as a function of time and of the base analog used.

[4] = biological target: T1, HIV-1 reverse transcriptase; experiment: Analysis of mismatches: restriction test and sequencing of mutated plasmids from the minus A reaction; details: for fidelity of the HIV-1 reverse transcriptase / profile of mutations: analog instead of normal dNTP
Experimental: Matrix/labeled primer (0.5 pmol), reverse transcriptase (0.04 U/μl) and the 3 dNTPs (500 μM final) were incubated for 30 min at 37° C., and then the dATP (500 μM final) was added and the incubation continued for 30 min at 37° C. The reaction is then stopped by adding EDTA at the concentration of 10 mM final. The reaction products are recovered after alcohol precipitation and digested with the Sac I enzyme. After denaturation at 90° C. for 3 min, the product is loaded onto a denaturing 10% acrylamide gel. After migration and auto-radiography, the 200-base bands are recovered on the gel and then purified. These fragments are amplified by PCR (15 cycles), cleaved with Mlu I and Bam H I and inserted into pBluescript SK+ppt by ligation with T4 DNA ligase, followed by transformation with XL-1 Blue.
The mutated plasmids are easily selected since they no longer have the restriction site recognized by the Nco I enzyme (see FIG. 4.5). In addition, the absence of enzymatic digestion with Sph I implies a double mutation.
The polymerization reaction was carried out in the absence of dATP, as for the reaction in the presence of the “natural” bases, but the dGTP was replaced with dITP or the dTTP was replaced by dUTP. After 30 min at 37° C. in the presence of the HIV-1 reverse transcriptase and of 3 of the 4 bases, the matrix/labeled primer is purified on a Sephadex G50 column, so as to eliminate the nucleotides which have not been incorporated, and in particular the dITP and dUTP which would modify the Sac I restriction site. The elongation is then continued for 30 min at 37° C. in the presence of the 4 natural dNTPs, at the final concentration of 500 μM, and of the enzyme (0.05 U/μl). After alcohol precipitation, digestion with the Sac I restriction enzyme and recovery of the 200-base band, a PCR is carried out under the same conditions as for the reaction in the presence of the “natural” bases. […]

[5] = matrix +env, ppt primer, dNTPs 500 μM each
[6] = 7 plasmids sequenced, minus A, dITP instead of dGTP
[7] = of 36 plasmids isolated, minus A, Nco I and Sph I digestion test
[8] = sequenced plasmids, absence of dATP and dGTP

T2 sequence (P00582 324-928): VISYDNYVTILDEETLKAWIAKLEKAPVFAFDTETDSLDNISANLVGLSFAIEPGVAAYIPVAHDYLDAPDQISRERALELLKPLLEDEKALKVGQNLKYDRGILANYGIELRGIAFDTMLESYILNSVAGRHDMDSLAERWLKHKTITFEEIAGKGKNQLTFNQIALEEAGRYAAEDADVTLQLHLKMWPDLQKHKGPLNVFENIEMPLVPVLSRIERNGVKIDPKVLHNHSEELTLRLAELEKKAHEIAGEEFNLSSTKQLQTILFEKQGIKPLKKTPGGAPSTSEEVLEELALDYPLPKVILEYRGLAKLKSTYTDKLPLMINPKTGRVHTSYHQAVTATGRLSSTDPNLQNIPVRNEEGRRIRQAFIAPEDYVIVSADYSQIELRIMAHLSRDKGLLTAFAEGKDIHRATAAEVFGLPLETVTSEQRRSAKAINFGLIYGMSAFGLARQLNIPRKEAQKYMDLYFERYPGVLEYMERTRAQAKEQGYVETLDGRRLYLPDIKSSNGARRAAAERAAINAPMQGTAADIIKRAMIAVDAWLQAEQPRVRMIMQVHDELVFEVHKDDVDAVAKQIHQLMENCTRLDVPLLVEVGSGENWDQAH

Nc1ncnc2c1ccn2[C@H]1C[C@H](O)[C@@H](COP(=O)(O)OP(=O)(O)OP(=O)(O)O)O1 [c7dATP]
number of new termination sites appearing ([1]; 500 μM): 3 sites
termination rate with the analog compared to the normal dNTP, overall [1]: little effect overall
decrease of the termination rate on A75 ([1]; c7dATP instead of dATP, 500 μM): ~2 fold
increase of termination strength opposite A41 ([1]; c7dATP instead of dATP, 500 μM): 7 ×
increase of termination strength opposite T76 ([1]; c7dATP instead of dATP, 500 μM): 2 ×
increase of the termination rate at A41 ([1]; c7dATP instead of dATP, 500 μM): ~7 fold
part of the elongation complexes stopped at new site T63 ([1]; c7dATP instead of dATP, 500 μM): half
termination rate on A35 ([1]; c7dATP instead of dATP, 500 μM): remains stable
termination rate with the analog compared to the normal dNTP [2]: increase in the termination rates in 3 waves

Nc1nc2c(ccn2C2CC(O)C(COP(=O)(O)OP(=O)(O)OP(=O)(O)O)O2)c(=O)[nH]1 (centres unmarked) [c7dGTP]
number of new termination sites appearing ([1]; 500 μM): 4 sites
termination rate with the analog compared to the normal dNTP, overall [1]: considerable increase at the start of elongation, and then a clear tendency toward decreasing the termination rate
decrease of the termination rate at other sites ([1]; c7dGTP instead of dGTP, 500 μM): up to 10 fold
decrease of the termination rate opposite C21 ([1]; c7dGTP instead of dGTP, 500 μM): 10%
decrease of the termination rate opposite C49 ([1]; c7dGTP instead of dGTP, 500 μM): 90%
increase of the termination rate at 6 of the 18 termination sites ([1]; c7dGTP instead of dGTP, 500 μM): up to 3.5 fold
termination rate with the analog compared to the normal dNTP [2]: All the stops on the sites at which the c7dGMP is incorporated into the polymerized strand are increased
decrease of the termination rate at C32 ([2]; c7dGTP instead of dGTP, 500 μM): 26%

O=c1[nH]cnc2c1ncn2[C@H]1C[C@H](O)[C@@H](COP(=O)(O)OP(=O)(O)OP(=O)(O)O)O1 [dITP]
decrease of the error rate observed with dGTP at the first misinsertion site ([3]; dITP instead of dGTP, after 45 min of incubation): ~50%
error rate at the first misincorporation site opposite T-135 after 10 min [3, 5]: 40%
error rate at the first misincorporation site opposite T-135, start of the kinetics [3, 5]: 0%
number of new termination sites appearing ([1]; 500 μM): Two
termination rate with the analog compared to the normal dNTP, overall [1]: higher
factor of increase in the termination rates of 10 sites ([1]; dITP instead of dGTP, 500 μM): ~4
termination strength at the exit of the series of 6As, on average ([1]; dITP instead of dGTP, 500 μM): doubled
deletion or insertion in the plasmids sequenced ([4]; 7 plasmids sequenced, minus A): No deletion or insertion is detected
times C is incorporated at the 1st site of misincorporation (T-135 matrix) [4, 6]: 4 times
times the I base is incorporated at the 1st site of misincorporation (T-135 matrix) [4, 6]: 3 times
order of substitution at the T sites of the matrix ([4]; absence of dATP): C>>I>>T
fidelity of the HIV-1 reverse transcriptase / profile of mutations ([4]; absence of dATP): increased
mutation rate ([4]; in vitro, absence of dATP, dITP instead of dGTP): decreases the mutation rate
plasmids mutated at least on the first site at which A is requested [4, 7]: 4 plasmids
plasmids mutated on at least the first three sites [4, 7]: 3 plasmids
plasmids mutated on the first two sites [4, 7]: one
number of T:I pairings [4, 8]: three
number of T:T pairings [4, 8]: one
number of T:C mismatches, all mismatches whatever their position ([4]; sequenced plasmids, minus A): eight
termination rate with the analog compared to the normal dNTP [2]: increases in the termination rates of the sites located before the incorporation of a dITP

O=c1ccn([C@H]2C[C@H](O)[C@@H](COP(=O)(O)OP(=O)(O)OP(=O)(O)O)O2)c(=O)[nH]1 [dUTP]
error rate at the first misincorporation site opposite T-135 after 10 min [3, 5]: 65%
error rate at the first misincorporation site opposite T-135 after 45 min ([3]; matrix +env, ppt primer, dNTPs 500 μM each, 45 min): ~77%
error rate at the first misincorporation site opposite T-135, start of the kinetics [3, 5]: 5%
termination rate with the analog compared to the normal dNTP, overall [1]: lower than with dTTP
decrease of the termination rate of most of the sites located before and after the incorporation of the analog (maximum) ([1]; dUTP instead of dTTP, 500 μM): ≤ 5%
number of sites with a decrease of more than half of their termination rate ([1]; dUTP instead of dTTP, 500 μM): Seven
T:U mismatch ([4]; 6 plasmids sequenced, minus A, dUTP instead of dTTP): No base U is incorporated
fidelity of the HIV-1 reverse transcriptase / profile of mutations ([4]; absence of dATP): only slightly modifies the profile and the specificity of the mutations
plasmids without any mutations on the Sph I and Nco I sites ([4]; of 36 plasmids, minus A): 15 plasmids
plasmids with at least two mutations ([4]; of 36 plasmids, minus A, Sph I and Nco I digestion): 21 plasmids
number of T:C mismatches, all mismatches whatever their position ([4]; sequenced plasmids, minus A): 6
number of T:G mismatches, all mismatches whatever their position ([4]; sequenced plasmids, minus A): 17
termination rate with the analog compared to the normal dNTP [2]: significantly increases the termination rate of most of the sites which precede the incorporation of the dUMP
